What was measured:
[1] = tested on: A431 cells (EGFR++/HER2+/-/CD71+)
[2] = tested on: A2058 cells (EGFR-)
[3] = tested on: HeLa cells (EGFR+/-); assay: Cell killing / cell viability, HeLa cells
[4] = tested on: HSP27 mRNA in A431 cells (EGFR++); assay: HSP27 gene silencing in A431 cells; type: cell-based, human
Description: (§1) Cells were seeded in DMEM (PAN-Biotech GmbH) supplemented with 10% fetal bovine serum (PAN-Biotech GmbH) and 1% penicillin/streptomycin (PAN-Biotech GmbH), in a 96 well plate at 5,000 c/w in 100 μL/well and incubated overnight at 37° C. and 5% CO2. The next day samples were prepared in DMEM and cells were treated.
(§2) RNA isolation and Qper analysis was performed according to standard procedures and protocols.

[5] = tested on: HSP27 mRNA in A2058 cells (EGFR-); assay: HSP27 gene silencing in A2058 cells; type: cell-based, human; settings: titrated + fixed 4000 nM SO1861-EMCH, nM of HSP27BNA or of conjugate
Description: as §1, §2

[6] = tested on: SK-BR-3, JIMT-1, MDA-MB-468, A431, CaSki, HeLa, A2058; assay: Control treatments, relative cell viability on all cell lines; type: cell-based, human; settings: wide range of toxin concentrations, up to 100.000 pM

CC(=O)OC1C(C)OC(OC2C(C)OC(OC(=O)[C@]34CCC(C)(C)CC3C3=CCC5[C@@]6(C)CC[C@H](OC7OC(C(=O)O)C(O)C(OC8OCC(O)C(O)C8O)C7OC7OC(CO)C(O)C(O)C7O)[C@@](C)(/C=N/NC(=O)CCCCCN7C(=O)C=CC7=O)C6CC[C@@]5(C)[C@]3(C)C[C@H]4O)C(OC3OC(C)C(OC4OCC(O)C(OC5OC(CO)C(O)C(O)C5O)C4O)C(O)C3O)C2O)C(O)C1OC1OCC(O)C(O)C1O (some centres unmarked) [SO1861-EMCH]
concentration above which general toxicity is seen without EGFdianthin ([1]; single compound): > 25.000 nM | concentration above which general toxicity is seen without EGFdianthin ([2]; single compound): > 25.000 nM | IC50 cell viability reduction ([2]; titrated + fixed […] EGFdianthin): not affected at all | concentration above which general toxicity is seen without EGFdianthin ([3]; single compound): > 25.000 nM

HSP27BNA: antisense BNA oligo targeting HSP27 mRNA, sequence 5′-GGCacagccagtgGCG-3′ (antisense GGCACAGCCAGTGGCG; BNA modifications)
IC50 ([4]; titrated + fixed 28.6 nM or 77 nM cetuximab-(Cys-L-SO1861)^3.9): 10 nM | IC50 ([4]; titrated + fixed 4000 nM SO1861-EMCH, nM of HSP27BNA or of conjugate): 10 nM | IC50 [5]: 10 nM

CC(=O)OC1C(C)OC(OC2C(C)OC(OC(=O)[C@]34CCC(C)(C)CC3C3=CCC5[C@@]6(C)CC[C@H](OC7OC(C(=O)O)C(O)C(OC8OCC(O)C(O)C8O)C7OC7OC(CO)C(O)C(O)C7O)[C@@](C)(C=O)C6CC[C@@]5(C)[C@]3(C)C[C@H]4O)C(OC3OC(C)C(OC4OCC(O)C(OC5OC(CO)C(O)C(O)C5O)C4O)C(O)C3O)C2O)C(O)C1OC1OCC(O)C(O)C1O (some centres unmarked) [SO1861]
IC50 cell killing ([1]; substance alone, no partner): strong cell viability reduction | IC50 cell killing ([2]; substance alone, no partner): strong cell viability reduction | IC50 cell viability (general toxicity) ([3]; substance alone, in absence of EGFdianthin): strong cell viability reduction

saporin
influence on cell viability [6]: do not or hardly have any influence on cell viability

Reference: patent US20220218837A1, “DRUG CONJUGATE” (priority 2018, published 2022)
